Like-named read-outs stand apart in the source and are kept apart here.
Molecular target: T1, TYK2 (Homo sapiens, UniProt P29597)
T1 construct: Degradation of TYK2 in cells was quantitatively measured using Meso Scale Discovery (MSD) technology; endogenous in cells; host or cells: OCI-LY10
Experiment: TYK2 MSD degradation in OCI-LY10 cells
Assay type: cell-based
Details: 4 to 24 hours incubation; for DC50: read-out: TYK2 MSD OCI-LY10 Rel-DC50
In short: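 OCI-LY10 cells were treated with 9-dose 1:3 series (top 1 to 10 μM final) for 4 to 24 hours at 37° C. Lysate TYK2 quantified by MSD sandwich immunoassay; DC50 and Dmax from four-parameter inhibitor vs. response fit.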

[1] = TYK2 degradation in OCI-LY10 cells

T1 sequence (P29597 whole entry): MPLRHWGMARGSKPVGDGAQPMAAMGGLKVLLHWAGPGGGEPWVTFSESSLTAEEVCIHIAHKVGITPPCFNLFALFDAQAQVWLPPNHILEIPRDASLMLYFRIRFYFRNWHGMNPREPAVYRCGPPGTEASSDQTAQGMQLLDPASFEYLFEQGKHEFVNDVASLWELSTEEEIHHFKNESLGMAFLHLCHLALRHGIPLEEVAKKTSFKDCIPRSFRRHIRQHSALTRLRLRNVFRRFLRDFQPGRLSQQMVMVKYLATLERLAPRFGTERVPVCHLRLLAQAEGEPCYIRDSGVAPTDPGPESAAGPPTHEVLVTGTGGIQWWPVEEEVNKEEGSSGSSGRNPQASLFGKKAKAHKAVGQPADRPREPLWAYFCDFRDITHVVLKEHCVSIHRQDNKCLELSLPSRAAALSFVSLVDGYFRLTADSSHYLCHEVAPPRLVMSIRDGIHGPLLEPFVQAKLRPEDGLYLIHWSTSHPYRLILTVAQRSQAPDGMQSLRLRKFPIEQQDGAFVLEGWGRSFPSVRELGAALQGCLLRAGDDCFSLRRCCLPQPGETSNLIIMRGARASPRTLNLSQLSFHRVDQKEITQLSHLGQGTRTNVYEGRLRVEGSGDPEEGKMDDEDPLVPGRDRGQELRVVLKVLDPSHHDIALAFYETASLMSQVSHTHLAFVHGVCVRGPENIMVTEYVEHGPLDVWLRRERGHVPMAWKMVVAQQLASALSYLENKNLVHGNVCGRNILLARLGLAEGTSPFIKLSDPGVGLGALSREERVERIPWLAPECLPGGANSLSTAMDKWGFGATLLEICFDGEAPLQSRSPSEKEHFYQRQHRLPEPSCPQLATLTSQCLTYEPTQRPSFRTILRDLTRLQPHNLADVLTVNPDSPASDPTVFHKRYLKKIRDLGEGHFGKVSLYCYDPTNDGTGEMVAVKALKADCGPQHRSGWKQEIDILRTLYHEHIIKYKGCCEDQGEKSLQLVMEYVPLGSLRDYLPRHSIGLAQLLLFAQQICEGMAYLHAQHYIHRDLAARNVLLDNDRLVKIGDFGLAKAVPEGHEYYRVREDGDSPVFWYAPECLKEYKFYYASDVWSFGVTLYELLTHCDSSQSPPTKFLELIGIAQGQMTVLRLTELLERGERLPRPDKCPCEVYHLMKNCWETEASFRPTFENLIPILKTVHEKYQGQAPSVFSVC

Row | SMILES | TYK2 MSD OCI-LY10 Dmax % [1] | DC50 [1] [nM] | TYK2 MSD OCI-LY10 Dmax % (OCI-LY10 cells) | DC50 (OCI-LY10 cells) [nM] | Dmax [1] [%]
1 | CNc1cc(N2CCc3c(CN4CCC(N5CCC6(CC5)CN(C(=O)c5ccc(Cl)c(N7CCC(=O)NC7=O)c5)C6)C(F)(F)C4)cccc32)nn2c(C(=O)N[C@@H]3C[C@@H]3F)cnc12 (stereo partly drawn) [I-855] | A (A (>90%)) | < 1 |  |  | 
2 | CNc1cc(-c2cn(C3CCN(C(=O)c4ccc(Cl)c(N5CCC(=O)NC5=O)c4)CC3)c3ccccc23)nn2c(C(=O)N[C@@H]3C[C@@H]3F)cnc12 [I-798] | D (D (<50%)) | > 100 |  |  | 
3 | CNc1cc(N2CCc3c(CN4CCC(N5CCC(N6CCN(C(=O)c7ccc(Cl)c(N8CCC(=O)NC8=O)c7)CC6)CC5)C(F)(F)C4)cccc32)nn2c(C(=O)N[C@@H]3C[C@@H]3F)cnc12 (stereo partly drawn) [I-707] |  |  | D (D (<50%)) | < 10 | 
4 | CNc1cc(N2CCc3c(-c4ncc(CN5CC6(CCN(C(=O)c7cc(C)c(Cl)c(N8CCC(=O)NC8=O)c7)CC6(F)F)C5)cc4F)cccc32)nn2c(C(=O)NC3CCC3)cnc12 [I-991] | B (B (90 to >75%)) | < 10 |  |  | 
5 | CNc1cc(N2CCc3c(CN4CCC(N5CCC6(CCN(C(=O)c7ccc(Cl)c(N8CCC(=O)NC8=O)c7)CC6)CC5)C(F)(F)C4)cccc32)nn2c(C(=O)N[C@@H]3C[C@@H]3F)cnc12 (stereo partly drawn) [I-361] | B (B (90 to >75%)) | < 1 |  |  | 
6 | CNc1cc(N2CCc3c(-c4ccc(CN5CCC6(CCN(C(=O)c7ccc(Cl)c(N8CCC(=O)NC8=O)c7)CC6)C(F)(F)C5)cn4)cccc32)nn2c(C(=O)NC34CC(C3)C4)cnc12 [I-851] | C (C (75 to 50%)) | 10 to 100 |  |  | 
7 | CNc1cc(N2CCc3c(CN4CCC(N5CCN(CCc6ccc(Cl)c(C7CCC(=O)NC7=O)c6)CC5)C(F)(F)C4)cccc32)nn2c(C(=O)NC3CC3F)cnc12 (stereo not drawn) [I-900] | B (B (90 to >75%)) | < 10 |  |  | 
8 | CNc1cc(N2CCc3c(CN4CCC(N5CC(C6CCN(C(=O)c7ccc(Cl)c(N8CCC(=O)NC8=O)c7)CC6)C5)C(F)(F)C4)cccc32)nn2c(C(=O)N[C@@H]3C[C@@H]3F)cnc12 (stereo partly drawn) [I-791] |  |  | A (A (>90%)) | < 1 | 
9 | CNc1cc(N2CCc3c(-c4ccc(CN5CC6(CCN(C(=O)c7ccc(Cl)c(N8CCC(=O)NC8=O)c7)CC6(F)F)C5)cn4)cccc32)nn2c(C(=O)N[C@H]3C[C@@H](F)C3)cnc12 [I-883] | A (A (>90%)) | < 1 |  |  | 
10 | CNc1cc(N2CCc3c(-c4ccc(CN5CCC(N6CC(N7CCN(c8ccc9c(c8F)n(C)c(=O)n9C8CCC(=O)NC8=O)CC7)C6)C(F)(F)C5)cn4)cccc32)nn2c(C(=O)N[C@@H]3C[C@@H]3F)cnc12 (stereo partly drawn) [I-470] |  |  | B (B (90 to >75%)) | < 1 | 
11 | CNc1cc(N2CCc3c(-c4ccc(CN5CC6(CCN(C(=O)c7ccc(C(F)(F)F)c(N8CCC(=O)NC8=O)c7)CC6(F)F)C5)cn4)cccc32)nn2c(C(=O)N[C@@H]3C[C@@H]3F)cnc12 [I-969] | C (C (75 to 50%)) | < 10 |  |  | 
12 | CNc1cc(-c2ccc(N3CCC(CN4CC5(CCN(C(=O)c6ccc(Cl)c(N7CCC(=O)NC7=O)c6)CC5(F)F)C4)CC3)cc2)nn2c(C(=O)N[C@@H]3C[C@@H]3F)cnc12 [I-882] | D (D (<50%)) | > 100 |  |  | 
13 | CNc1cc(N2CCc3c(-c4ccc(CN5CCC(N6CCC(C#Cc7ccc8c(c7)n(C)c(=O)n8C7CCC(=O)NC7=O)CC6)C(F)(F)C5)cn4)cccc32)nn2c(C(=O)N[C@H]3C[C@H]3F)cnc12 (stereo partly drawn) [I-86] | C (C (75 to 50%)) | < 10 |  |  | 
14 | CNc1cc(N2CCc3c(CN4CCC(N5CC(N6CCN(c7cccn8c(N9CCC(=O)NC9=O)cnc78)CC6)C5)C(F)(F)C4)cccc32)nn2c(C(=O)N[C@@H]3C[C@@H]3F)cnc12 (stereo partly drawn) [I-904] | A (A (>90%)) | < 1 |  |  | 
15 | CNc1cc(-c2cn(C3CCN(CCC4CCN(C(=O)c5ccc(Cl)c(N6CCC(=O)NC6=O)c5)CC4)CC3)c3ccccc23)nn2c(C(=O)N[C@@H]3C[C@@H]3F)cnc12 [I-779] |  |  | D (D (<50%)) | > 100 | 
16 | CNc1cc(N2CCc3c2cccc3C23CC(CN4CCN(C5CCN(C(=O)c6ccc(Cl)c(N7CCC(=O)NC7=O)c6)CC5)CC4)(C2)C3)nn2c(C(=O)N[C@@H]3C[C@@H]3F)cnc12 [I-823] | A (A (>90%)) | < 1 |  |  | 
17 | CNc1cc(N2CCc3c(-c4ccc(CN5CCC6(CCN(C(=O)c7cc(C)c(Cl)c(N8CCC(=O)NC8=O)c7)CC6)C(F)(F)C5)cn4)cccc32)nn2c(C(=O)N[C@@H]3C[C@@H]3F)cnc12 [I-655] |  |  | B (B (90 to >75%)) | < 10 | 
18 | CNc1cc(N2CCc3c(CN4CCC(N5CCC6(CCN(c7ccc8c(c7)n(C)c(=O)n8C7CCC(=O)NC7=O)CC6)CC5)C(F)(F)C4)cccc32)nn2c(C(=O)N[C@@H]3C[C@@H]3F)cnc12 (stereo partly drawn) [I-237] | B (B (90 to >75%)) | < 1 |  |  | 

Row | SMILES | TYK2 MSD OCI-LY10 Dmax % [1] | DC50 [1] [nM] | TYK2 MSD OCI-LY10 Dmax % (OCI-LY10 cells) | DC50 (OCI-LY10 cells) [nM] | Dmax [1] [%]
19 | CNc1cc(-c2cn(C3CN(C4CCN(C(=O)c5ccc(Cl)c(N6CCC(=O)NC6=O)c5)CC4)C3)c3ccccc23)nn2c(C(=O)N[C@@H]3C[C@@H]3F)cnc12 [I-745] |  |  | D (D (<50%)) | > 100 | 
20 | CNc1cc(N2CCc3c(-c4ccc(CN5CCC6(CCN(C(=O)c7ccc(Cl)c(N8CCC(=O)NC8=O)c7)CC6)C(F)(F)C5)cn4)cccc32)nn2c(C(=O)NC3CC(C(F)(F)F)C3)cnc12 (stereo not drawn) [I-1118] | C (C (75 to 50%)) | 10 to 100 |  |  | 
21 | COC1(c2cc(C)cc(-c3cn(CCC4CCN(C5CCN(c6cc(F)c(C7CCC(=O)NC7=O)c(F)c6)CC5)CC4)c4cnc(NC(C)=O)cc34)n2)CCOC1 (stereo not drawn) [I-1130] | B (B (90 to >75%)) | < 10 |  |  | 
22 | CNc1cc(N2CCc3c(-c4ccc(CN5CC6(CCN(Cc7ccc(OC)c(C8CCC(=O)NC8=O)c7)CC6(F)F)C5)cn4)cccc32)nn2c(C(=O)N[C@@H]3C[C@@H]3F)cnc12 (stereo partly drawn) [I-431] |  |  | B (B (90 to >75%)) | < 10 | 
23 | CNC(=O)c1cnc(Nc2ccc(C(=O)NCCOCCOCCOCCOCCN(C(=O)[C@H]3CCCN(c4cncc5ccccc45)C3)c3ccc(=O)n(CC(=O)OC)c3)cn2)cc1Nc1cccc(-c2ncccn2)c1OC [I-912, Methyl (S)-2-(5-(1-(isoquinolin-4-yl)-N-(1-(6-((4-((2-methoxy-3-(pyrimidin-2-yl)phenyl)amino)-5-(methylcarbamoyl)pyridin-2-yl)amino)pyridin-3-yl)-1-oxo-5,8,11,14-tetraoxa-2-azahexadecan-16-yl)piperidine-3-carboxamido)-2-oxopyridin-1(2H)-yl)acetate] |  | > 100 |  |  | < 50
24 | CNc1cc(N2CCc3c(CN4CCC5(CC4)CCN(C(=O)c4ccc(Cl)c(N6CCC(=O)NC6=O)c4)CC5)cccc32)nn2c(C(=O)NC3CC3)cnc12 [I-58] | D (D (<50%)) | > 100 |  |  | 
25 | CNc1cc(N2CCc3c(-c4ccc(CN5CCC6(C5)CN(C(=O)c5ccc(Cl)c(N7CCC(=O)NC7=O)c5)C6)cn4)cccc32)nn2c(C(=O)NC3CC3F)cnc12 (stereo not drawn) [I-297] | C (C (75 to 50%)) | < 10 |  |  | 
26 | CNc1cc(N2CCc3c2ccc(F)c3CN2CCC(N3CCC4(CCN(C(=O)c5ccc(Cl)c(N6CCC(=O)NC6=O)c5)CC4)CC3)C(F)(F)C2)nn2c(C(=O)N[C@@H]3C[C@@H]3F)cnc12 (stereo partly drawn) [I-750] |  |  | A (A (>90%)) | < 1 | 
27 | CNc1cc(N2CCc3c(CC4CN(C5CCN(C6CCN(C(=O)c7ccc(Cl)c(N8CCC(=O)NC8=O)c7)CC6)CC5(F)F)C4)cccc32)nn2c(C(=O)N[C@@H]3C[C@@H]3F)cnc12 (stereo partly drawn) [I-698] |  |  | B (B (90 to >75%)) | < 1 | 
28 | CNc1cc(N2CCc3c(-c4ccc(CN5CC6(CCN(C(=O)c7ccc(Cl)c(N8CCC(=O)NC8=O)c7)CC6)C5)nc4)cccc32)nn2c(C(=O)N[C@@H]3C[C@@H]3F)cnc12 [I-247] | B (B (90 to >75%)) | < 10 |  |  | 
29 | CNc1cc(N2CCc3c(-c4ccc(CN5CCC6(CCN(C(=O)c7ccc(Cl)c(N8CCC(=O)NC8=O)c7)CC6)C(F)(F)C5)cn4)cccc32)nn2c(C(=O)N[C@@H]3C[C@@H]3F)cnc12 [I-901] | A (A (>90%)) | < 1 |  |  | 
30 | CNc1cc(N2CCc3c(CCN4CCC(N5CCC6(CCN(C(=O)c7ccc(Cl)c(N8CCC(=O)NC8=O)c7)CC6)CC5)C(F)(F)C4)cccc32)nn2c(C(=O)NC3CC3F)cnc12 (stereo not drawn) [I-687] |  |  | B (B (90 to >75%)) | < 1 | 
31 | CNc1cc(N2CCc3c(C#CCN4CC5(CCN(C(=O)c6ccc(Cl)c(N7CCC(=O)NC7=O)c6)CC5(F)F)C4)cccc32)nn2c(C(=O)N[C@@H]3C[C@@H]3F)cnc12 [I-241] | C (C (75 to 50%)) | < 10 |  |  | 
32 | CNc1cc(N2CCc3c(-c4ccc(CN5CCC6(CCN(C(=O)c7cc(F)c(OC)c(N8CCC(=O)NC8=O)c7)CC6)C(F)(F)C5)cn4)cccc32)nn2c(C(=O)N[C@@H]3C[C@@H]3F)cnc12 [I-776] |  |  | B (B (90 to >75%)) | < 10 | 
33 | CNc1cc(N2CCc3c(CCN4CCC(N5CCN(C(=O)c6ccc(Cl)c(N7CCC(=O)NC7=O)c6)CC5)C(F)(F)C4)cccc32)nn2c(C(=O)N[C@@H]3C[C@@H]3F)cnc12 (stereo partly drawn) [I-743] |  |  | B (B (90 to >75%)) | < 10 | 
34 | CNc1cc(N2CCc3c(N4CCC(CN5CCC(N6CCN(c7ccc8c(c7)n(C)c(=O)n8C7CCC(=O)NC7=O)CC6)C(F)(F)C5)CC4)cccc32)nn2c(C(=O)NC3CC3)cnc12 (stereo not drawn) [I-5] | C (C (75 to 50%)) | < 10 |  |  | 
35 | CNc1cc(N2CCc3c(-c4ccc(CN5CC6(CCN(Cc7ccc(Cl)c(N8CCC(=O)NC8=O)c7)CC6(F)F)C5)cn4)cccc32)nn2c(C(=O)N[C@@H]3C[C@@H]3F)cnc12 [I-369] | D (D (<50%)) | > 100 |  |  | 
36 | CNc1cc(N2CCc3c(CN4CCC(N5CCC6(CCN(c7ccc8c(c7)n(C)c(=O)n8C7CCC(=O)NC7=O)CC6)CC5)C(F)(F)C4)cccc32)nn2c(C(=O)NC3CC3)cnc12 (stereo not drawn) [I-19] | B (B (90 to >75%)) | < 10 |  |  | 
